PMC10590056, “Design and synthesis of cabotegravir derivatives bearing 1,2,3-triazole and evaluation of anti-liver cancer activity” (Frontiers in Pharmacology, 2023)
Values joined by “and” are separate entries in the source; they are usually repeats but may differ in a detail not shown here. Equal values may be shown once. Read-outs that look alike come from different tables or passages of the source.

Key:
Assay type in all cases: cell-based
HepG2 cells [1] = test: DAPI staining for cell apoptosis (morphology); details: HepG2, 2, 4, 8 μM, 24 h
Procedure: Apoptotic morphological changes were determined by DAPI staining. HepG2 cells were seeded in a 48-well plate and treated with different concentrations of KJ-5 and KJ-12 (2, 4, and 8 μM) for 24 h. After 24 h, they were then washed with PBS and fixed with 4% paraformaldehyde for 20 min. Subsequently, they were then washed with PBS and treated with DAPI (10 μg/mL) at 37°C for 5 min. After washing with PBS, the cells were resuspended in PBS for the rest of the experiment. A fluorescence microscope was used to observe the apoptotic morphological changes.

HeLa cells = test: MTT assay for cell proliferation, HeLa; parameters: key to Inhibitory rate: inhibition rate = 1 - mean A490 sample/mean A490 control (fraction)
Outline: (§1)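 Proliferation read-out is MTT reduction (4 h) after 48 h treatment with KJ-5 or KJ-12 across 0, 1, 2, 4, 8, 16 and 32 μM. Cultures in 10% FBS DMEM, 37 °C, plated at 10^5 cells/mL; A490 of DMSO-dissolved formazan compared with untreated control.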

KYSE-30 cells = test: MTT assay for cell proliferation, KYSE-30; parameters: key to Inhibitory rate: inhibition rate = 1 - mean A490 sample/mean A490 control (fraction)
Outline: as §1

normal hepatic cells L02 = test: MTT inhibition rate in normal hepatic cells L02; details: for Average OD / Inhibitory rate / ODtreated/ODcontrol: L02 cells, 3 repeat experiments; for Average OD: average of 5 wells; for Inhibitory rate / ODtreated/ODcontrol: fraction
HepG2 cells [2] = test: Cell cycle analysis (PI, flow cytometry); details: 24 h
Procedure: HepG2 cells were seeded in a 6-well plate at a density of 5 × 10^6 cells/well and treated with either KJ-5 or KJ-12 at concentrations of 2, 4, or 8 μM for 24 h. Cells were then collected and responded in […] of cold PBS. Subsequently, 700 μL of cold 70% ethanol was added to the cells and gently mixed by inversion on ice for 1 h. Cells were then centrifuged at 2,000 rpm for 10 min, washed once with 2 mL of cold PBS, and the supernatant was discarded. The cell pellet was resuspended in 250 μL of cold PBS, followed by the addition of 10 μL of RNase at a final concentration of 0.4 mg/mL and incubated at 37°C for 30 min. An additional 250 μL of PBS was added, followed by the addition of 5 μL of PI solution at a final concentration of 10 μg/mL. The samples were incubated […] in the dark overnight at 4°C. Finally, the samples were analyzed by flow cytometry.

COc1c2n(cc(C(=O)Nc3cccc(-c4cn(-c5c(C)cc(C)cc5C)nn4)c3)c1=O)C[C@H]1OC[C@H](C)N1C2=O [KJ-12]
Apoptotic morphological changes, DAPI staining (HepG2 cells [1]): cell shrinkage, nuclear condensation, and chromatin fragmentation
Inhibitory rate (HeLa cells; Hela, group 1 (concentration), fraction, single experiments): 0.2971 and 0.2883 and 0.2551
ODtreated/ODcontrol (HeLa cells; Hela, group 1 (concentration), single experiments): 0.7029 and 0.7117 and 0.7449
Inhibitory rate (HeLa cells; Hela, group 2 (concentration), fraction, single experiments): 0.3155 and 0.3221 and 0.3198
ODtreated/ODcontrol (HeLa cells; Hela, group 2 (concentration), single experiments): 0.6845 and 0.6779 and 0.6802
Inhibitory rate (HeLa cells; Hela, group 4 (concentration), fraction, single experiments): 0.3594 and 0.3533 and 0.3688
ODtreated/ODcontrol (HeLa cells; Hela, group 4 (concentration), single experiments): 0.6406 and 0.6467 and 0.6312
Inhibitory rate (HeLa cells; Hela, group 8 (concentration), fraction, single experiments): 0.7153 and 0.627 and 0.5661
ODtreated/ODcontrol (HeLa cells; Hela, group 8 (concentration), single experiments): 0.2847 and 0.373 and 0.4339
Inhibitory rate (HeLa cells; Hela, group 16 (concentration), fraction, single experiments): 0.7226 and 0.7292 and 0.7302
ODtreated/ODcontrol (HeLa cells; Hela, group 16 (concentration), single experiments): 0.2774 and 0.2708 and 0.2698
Inhibitory rate (HeLa cells; Hela, group 32 (concentration), fraction, single experiments): 0.7312 and 0.7755 and 0.8162
ODtreated/ODcontrol (HeLa cells; Hela, group 32 (concentration), single experiments): 0.2688 and 0.2245 and 0.1838
IC50 (HeLa cells; Hela, one of three experiments, unit inferred, read-out: IC50, single experiment, Hela): 5.49 µM and 4.82 µM
Inhibitory rate (HeLa cells; Hela, fraction, per experiment): 0.7218 and 0.7353 and 0.6986
ODtreated/ODcontrol (HeLa cells; Hela, fraction, per experiment): 0.2782 and 0.2647 and 0.3014
IC50 (HeLa cells; Homo sapiens, HeLa, 48 h, HeLa, 48 h, MTT, read-out: IC50 HeLa): 5.17 ± 0.34 µM
IC50 (HeLa cells; Homo sapiens, HeLa, one of three experiments, unit inferred, read-out: IC50, single experiment, Hela): 5.19 µM
inhibition at 16 µM (HeLa cells; Homo sapiens, preliminary screening, Hela, 16 μM, 48 h, mean±SD, unit inferred, read-out: Inhibition rate (16μM), 48 h, Hela): 71.9 ± 1.86%
IC50 (KYSE-30 cells; Homo sapiens, KYSE-30, 48 h, MTT, read-out: IC50 KYSE-30): 11.7 ± 0.21 µM
IC50 (KYSE-30 cells; Homo sapiens, KYSE-30, KYSE-30, one of three experiments, unit inferred, read-out: IC50, single experiment, KYSE-30): 11.8 µM
inhibition at 16 µM (KYSE-30 cells; Homo sapiens, preliminary screening, KYSE-30, 16 μM, 48 h, mean±SD, unit inferred, read-out: Inhibition rate (16μM), 48 h, KYSE-30): 56.1 ± 4.59%
ODtreated/ODcontrol (KYSE-30 cells; KYSE-30, first of three experiments): 0.4595
Inhibitory rate (KYSE-30 cells; KYSE-30, given as fraction, first of three experiments): 0.5405
Inhibitory rate (KYSE-30 cells; KYSE-30, given as fraction, second of three experiments): 0.5295
Inhibitory rate (KYSE-30 cells; KYSE-30, given as fraction, third of three experiments): 0.614
Inhibitory rate (KYSE-30 cells; KYSE-30, group 1 (concentration), fraction, single experiments): 0.1337 and 0.126 and 0.1387
ODtreated/ODcontrol (KYSE-30 cells; KYSE-30, group 1 (concentration), single experiments): 0.8663 and 0.874 and 0.8613
Inhibitory rate (KYSE-30 cells; KYSE-30, group 2 (concentration), fraction, single experiments): 0.1741 and 0.1797 and 0.2087
ODtreated/ODcontrol (KYSE-30 cells; KYSE-30, group 2 (concentration), single experiments): 0.8259 and 0.8203 and 0.7913
Inhibitory rate (KYSE-30 cells; KYSE-30, group 4 (concentration), fraction, single experiments): 0.2947 and 0.287 and 0.2904
ODtreated/ODcontrol (KYSE-30 cells; KYSE-30, group 4 (concentration), single experiments): 0.7053 and 0.713 and 0.7096
Inhibitory rate (KYSE-30 cells; KYSE-30, group 8 (concentration), fraction, single experiments): 0.4545 and 0.4401 and 0.4294
ODtreated/ODcontrol (KYSE-30 cells; KYSE-30, group 8 (concentration), single experiments): 0.5455 and 0.5599 and 0.5706
Inhibitory rate (KYSE-30 cells; KYSE-30, group 16 (concentration), fraction, single experiments): 0.517 and 0.5136 and 0.5274
ODtreated/ODcontrol (KYSE-30 cells; KYSE-30, group 16 (concentration), single experiments): 0.483 and 0.4864 and 0.4726
Inhibitory rate (KYSE-30 cells; KYSE-30, group 32 (concentration), fraction, single experiments): 0.7126 and 0.7246 and 0.731
ODtreated/ODcontrol (KYSE-30 cells; KYSE-30, group 32 (concentration), single experiments): 0.2874 and 0.2754 and 0.269
IC50 (KYSE-30 cells; KYSE-30, one of three experiments, unit inferred, read-out: IC50, single experiment, KYSE-30): 11.9 µM and 11.5 µM
ODtreated/ODcontrol (KYSE-30 cells; KYSE-30, second of three experiments): 0.4705
ODtreated/ODcontrol (KYSE-30 cells; KYSE-30, third of three experiments): 0.386
inhibition at 1 µM (normal hepatic cells L02; Homo sapiens, L02, 48 h, L02, 1 μM, 48 h): 10.8 ± 0.95%
inhibition at 2 µM (normal hepatic cells L02; Homo sapiens, L02, 48 h, L02, 2 μM, 48 h): 13.6 ± 0.75%
inhibition at 4 µM (normal hepatic cells L02; Homo sapiens, L02, 48 h, L02, 4 μM, 48 h): < 20%
inhibition at 8 µM (normal hepatic cells L02; Homo sapiens, L02, 48 h, L02, 8 μM, 48 h): 22.3 ± 2.93%
inhibition at 16 µM (normal hepatic cells L02; Homo sapiens, L02, 48 h, L02, 16 μM, 48 h): 30.5 ± 1.2%
Average OD (normal hepatic cells L02; Group 1): 1.123 and 1.0994 and 0.8196
Inhibitory rate (normal hepatic cells L02; Group 1): 0.1145 and 0.1117 and 0.09678
ODtreated/ODcontrol (normal hepatic cells L02; Group 1): 0.8855 and 0.8883 and 0.9032
Average OD (normal hepatic cells L02; Group 2): 1.1022 and 1.0518 and 0.793
Inhibitory rate (normal hepatic cells L02; Group 2): 0.1433 and 0.1281 and 0.1359
ODtreated/ODcontrol (normal hepatic cells L02; Group 2): 0.8567 and 0.8719 and 0.8641
Average OD (normal hepatic cells L02; Group 4): 1.0412 and 1.0106 and 0.783
Inhibitory rate (normal hepatic cells L02; Group 4): 0.1541 and 0.1764 and 0.1697
ODtreated/ODcontrol (normal hepatic cells L02; Group 4): 0.8459 and 0.8236 and 0.8303
Average OD (normal hepatic cells L02; Group 8): 1.0104 and 0.9056 and 0.7302
Inhibitory rate (normal hepatic cells L02; Group 8): 0.2111 and 0.2008 and 0.256
ODtreated/ODcontrol (normal hepatic cells L02; Group 8): 0.7889 and 0.7992 and 0.744
Average OD (normal hepatic cells L02; Group 16): 0.8912 and 0.8512 and 0.6312
Inhibitory rate (normal hepatic cells L02; Group 16): 0.3181 and 0.295 and 0.3007
ODtreated/ODcontrol (normal hepatic cells L02; Group 16): 0.6819 and 0.705 and 0.6993
Average OD (normal hepatic cells L02; Group 32): 0.7446 and 0.6962 and 0.5126
Inhibitory rate (normal hepatic cells L02; Group 32): 0.4462 and 0.411 and 0.428
ODtreated/ODcontrol (normal hepatic cells L02; Group 32): 0.5538 and 0.589 and 0.572
Percentage of cells in the G1 phase (HepG2 cells [2]; HepG2, 2 μM): 47.4%
Percentage of cells in the G2/M phase (HepG2 cells [2]; HepG2, 2 μM): 22.2%
Percentage of cells in the G1 phase (HepG2 cells [2]; HepG2, 4 μM): 25%
Percentage of cells in the G2/M phase (HepG2 cells [2]; HepG2, 4 μM): 47.5%
Percentage of cells in the G1 phase (HepG2 cells [2]; HepG2, 8 μM): 16.4%
Percentage of cells in the G2/M phase (HepG2 cells [2]; HepG2, 8 μM): 59.7%
Percentage of cells in the S phase (change vs control) (HepG2 cells [2]; HepG2, 2-8 μM): remained unchanged substantially
